Assay results taken from publication PMC5629014, “Assessment of sesquiterpene lactones isolated from Mikania plants species for their potential efficacy against Trypanosoma cruzi and Leishmania sp” (PLoS Neglected Tropical Diseases, 2017).
Converted amounts (≈) assume the structure as drawn. “Also recorded” adds a separate entry of the source. Like-named read-outs stand apart in the source and are kept apart here.

How the values were obtained:
[1] = system: Leishmania braziliensis promastigotes (MHOM/BR/75/M2903 strain); test: Growth inhibition of Leishmania braziliensis promastigotes, MTT method; format: cell-based; settings: 72 h, read-out: IC50 on L. braziliensis promastigotes
Procedure: Leishmania braziliensis promastigotes (MHOM/BR/75/M2903 strain) were grown in liver infusion tryptose medium LIT, which was prepared as follows: 5 g/L liver infusion (Sigma 2023-072K1066), 5 g/L tryptose (Britania), 2 g/L glucose (Sigma), 68 mM NaCl, 5.4 mM KCl, 22 mM HPO4Na2, supplemented with 20 mg/L hemin (Sigma) and 10% (vol/vol) fetal calf serum (FCS) (Internegocios). Culture maintenance was performed by weekly passages at 26°C.
The growth inhibition of Leishmania braziliensis promastigotes was evaluated by the MTT method. Parasites (5x10^6) were settled at a final volume of 150 μL in a flat-bottom 96-well microplate and cultured at 37°C in a 5% CO2 atmosphere in the absence or presence of increasing concentrations of the pure compounds. After 72 h, 3-(4,5- dimethylthiazol-2-yl)-2,5-diphenyltetrazolium bromide (MTT) was added at a final concentration of 1.5 mg/mL. Plates were incubated for 2 h at 37°C. The purple formazan crystals formed were completely dissolved by adding 150 μL of ethanol and the absorbance was read at 595 nm in a microplate reader. The inhibition percentage was calculated as {100 − [(DO595nm of treated parasites/ DO595nm of untreated parasites) × 100]}. Compounds were tested at 0–50 μg/mL. Amphotericin B was used as positive control.

[2] = system: T. cruzi epimastigotes (RA strain); test: T. cruzi epimastigotes growth inhibition, [3H] thymidine uptake assay; format: cell-based, Trypanosoma cruzi; settings: for IC50: Trypanosoma cruzi, read-out: IC50 on T. cruzi epimastigotes
Procedure: (§1) Trypanosoma cruzi epimastigotes (RA strain) were grown in a biphasic medium. Cultures were routinely maintained by weekly passages at 28°C. T. cruzi bloodstream trypomastigotes (RA strain) and the recombinant Tulahuen strain expressing β-galactosidase (Tul-β-Gal) were obtained from infected CF1 mice by cardiac puncture at the peak of parasitemia on day 15 post-infection. Trypomastigotes were routinely maintained by infecting 21-day-old CF1 mice.
The evaluation of T. cruzi epimastigotes growth inhibition was performed by the [^3H] thymidine uptake assay. Briefly, exponentially growing epimastigotes were adjusted to a cell density of 1.5 × 10^6 parasites/mL in fresh medium. Parasites were allowed to grow for 72 h at 28°C in medium with or without different concentrations of each compound (0–5 μg/mL) in triplicate. Percent of inhibition was calculated as {100 − [(cpm of treated parasites/ cpm of untreated parasites) × 100]}. The compound concentration at which the parasite growth was inhibited by 50% (IC50) was determined after 72 h. Benznidazole was used as positive control.

[3] = system: T. cruzi amastigotes; test: Inhibition of intracellular amastigotes, β-galactosidase transfected parasites in Raw 264.7 cells (CPRG); format: cell-based; settings: Trypanosoma cruzi
Procedure: as §1
The effect of each compound on intracellular forms of T. cruzi was assayed using β-galactosidase transfected parasites. Briefly, 96-well plates were seeded with Raw 264.7 cells at 5x10^3 per well in […] of culture medium and incubated for 24 h at 37 °C in a 5% CO2 atmosphere. Cells were washed and infected with transfected blood trypomastigotes expressing β-galactosidase at a parasite/cell ratio of 10:1. After 12 h of co- culture, plates were washed twice with PBS to remove unbound parasites and each pure compound was added at different concentrations (0.001–50 μg/mL) in 150 μL of fresh complete RPMI medium without phenol red (Gibco, Rockville, MD). Controls included infected untreated cells (100% infection control) and uninfected cells (0% infection control). The assay was developed 5 days later by the addition of chlorophenol red-β-D-galactopyranoside (CPRG) (100 mM) and 1% Nonidet P40. Plates were then incubated for 4–6 h at 37 °C and the absorbance was measured at 595 nm in a microplate reader (Bio-Rad Laboratories, Hercules, CA). The percentage inhibition was calculated as 100–{[(absorbance of treated infected cells)/(absorbance of untreated infected cells) x 100} and the IC50 value was estimated. Benznidazole was used as positive control.

[4] = system: T. cruzi (RA strain); test: Animal model of T. cruzi infection (acute, lethal dose); format: in vivo, Balb/c mice
Procedure: Inbred male Balb/c mice were nursed at the Departamento de Microbiología, Facultad de Medicina, Universidad de Buenos Aires. Groups of six Balb/c male mice (6 to 8 weeks old) were infected with 1000 bloodstream T. cruzi trypomastigotes by the intraperitoneal route. Five days after infection, the presence of circulating parasites was confirmed by the microhematocrit method (Sülsen et al., 2013). Mice were treated daily with compound 3 or benznidazole (1 mg/kg of body weight/day) for five consecutive days (days 4 to 8 post-infection) by the intraperitoneal route. Drugs were resuspended in DMSO and then adjust to concentration in 0.1 M phosphate buffered saline (PBS, pH 7.2); this vehicle was also employed as a negative control. Levels of parasitemia were monitored every 2 days in 5 μL of blood diluted 1:5 in lysis buffer (0.75% NH4Cl, 0.2% Tris, pH 7.2) by counting parasites in a Neubauer chamber. The number of animal deaths was recorded daily.
The weight of each animal was evaluated during the acute phase of infection. Results were expressed as the ratio between the weight on each day and the weight registered the day of the infection multiplied by 100.
Parasitemia and weight loss were analyzed using a non parametric test: Mann-Whitney test. The survival curves were analyzed with a log rank test.

[5] = system: T. cruzi bloodstream trypomastigotes; test: Trypanocidal effect on bloodstream trypomastigotes, live parasite count in Neubauer chamber; format: cell-based; settings: Trypanosoma cruzi; 24 h, remaining live parasites counted
Procedure: as §1
The trypanocidal effect of the purified compounds was also tested on bloodstream trypomastigotes. Briefly, mouse blood containing trypomastigotes was diluted in complete RPMI -1640 Medium (Sigma-Aldrich R6504- Batch 029K83102) with 10% (vol/vol) fetal calf serum (FCS) (Internegocios) to adjust the parasite concentration to 3 × 10^5/mL. Parasites were seeded in duplicate in a 96-well microplate in the presence of each compound (0–50 μg/mL) or controls and incubated at 4 °C for 24 h. The number of remaining living parasites in each sample was determined in 5 μL of cell suspension diluted 1/5 in lysis buffer (0.75% NH4Cl, 0.2% Tris, pH 7.2) and counted in a Neubauer chamber. Benznidazole was used as positive control.

[6] = system: TNF-α; test: Cytokine production by macrophages, TNF-α sandwich ELISA; format: cell-based; settings: RAW 264.7 macrophages, 25 μg/mL, 24 h, p<0.01
Procedure: RAW 264.7 (ATCC TIB71) macrophage cell line were obtained from ATCC and cultured (1×10^5) in duplicate in 24-well plates in the presence of 2.5 or 25 μg/mL of Compound 3, LPS (10 μg/mL) plus INF-γ (0.30 μg/mL) (positive control), or medium alone (negative control). After 24 h, supernatants were collected and stored at -80 °C until cytokine analysis. IL-12 and TNF-α levels were determined by sandwich ELISA (BD Pharmingen, and R&D System, Minneapolis, MN, respectively) according to manufacturer’s instructions. Supplied standards were used to generate a standard curve.

[7] = system: human monocyte leukemia THP1 cells; test: Host cell toxicity, trypan blue exclusion method; format: cell-based; settings: 24 h
Procedure: (§2) The human monocyte leukemia THP1 (ATCC TIB202) cell line were obtained from the vendor. Cells were thawed, expanded and settled at a concentration 5x10^5 in a final volume of 150 μL in a flat-bottom 96-well microplate and cultured at 37°C in a 5% CO2 atmosphere in the absence or presence of increasing concentrations of the pure compounds. After 24 h, the cell viability was determined by the trypan blue exclusion method in the absence and presence of increasing concentrations of the compounds [26]. The 50% cytotoxic concentration (CC50) and the selectivity index (SI = CC50/IC50) were determined for each compound for T. cruzi trypomastigotes and amastigotes.

[8] = Host cell toxicity, trypan blue exclusion method; format: cell-based, human; settings: human
Procedure: as §2

[9] = system: IL-12; test: Cytokine production by macrophages, IL-12 sandwich ELISA; format: cell-based; settings: RAW 264.7 macrophages, 24 h
Procedure: […] After 24 h, supernatants were collected and stored at -80 °C until cytokine analysis. IL-12 and TNF-α levels were determined by sandwich ELISA (BD Pharmingen, and R&D System, Minneapolis, MN, respectively) according to manufacturer’s instructions. Supplied standards were used to generate a standard curve.

[10] = 72 h, 28°C, [3H] thymidine uptake
[11] = RAW264.7, β-galactosidase expressing T. cruzi in mammalian cells, read-out: IC50 on T. cruzi amastigotes
[12] = infected Balb/c mice, 1 mg/kg/day i.p., days 4 to 8 post-infection
[13] = THP1 (ATCC TIB202) monocyte leukemia cells

SMILES | IC50 ([1]; MTT) | IC50 [2, 10] | IC50 [3, 11] | reduction of area under the parasitemia curve with respect to controls [4, 12] | IC50 [5] | CC50 [7] | CC50 at 24 h [8, 13] | further results
C[C@@H]1[C@H](O)[C@@H](C)/C=C/C=C/C=C/C=C/C=C/C=C/C=C/[C@H](O[C@@H]2O[C@H](C)[C@@H](O)[C@H](N)[C@@H]2O)C[C@@H]2O[C@](O)(C[C@@H](O)C[C@@H](O)[C@H](O)CC[C@@H](O)C[C@@H](O)CC(=O)O[C@H]1C)C[C@H](O)[C@H]2C(=O)O [amphotericin B, reference compound] | 0.26 µg/mL (≈ 0.281 µM) |  |  |  |  |  |  | 
O=C(Cn1ccnc1[N+](=O)[O-])NCc1ccccc1 [benznidazole, reference compound] |  | 1.7 µg/mL (≈ 6.53 µM) | 1.1 µg/mL (≈ 4.23 µM) | 2.3 fold | 10.4 µg/mL (≈ 40 µM) |  |  | 
C=C1C(=O)OC2CC3(C)OC3CCC3=CC(OC3=O)C12 (centres unmarked) [deoxymikanolide] | 11.5 µg/mL (≈ 41.6 µM) | 0.08 µg/mL (≈ 0.29 µM) | 6.3 µg/mL (≈ 22.8 µM) | 1.5 fold | 1.5 µg/mL (≈ 5.43 µM) | 79.4 µg/mL (≈ 287 µM) | 79.4 µg/mL (≈ 287 µM) | secretion of TNF-α compared with negative control [6]: significant increase; IL-12 production ([9]; 2 μg/mL): slight increase; IL-12 production ([9]; 25 μg/mL): higher production rate; weight loss during the acute phase of infection compared to control mice ([4]; 20 days post infection, p = 0.028): able to reduce the weight loss; blood parasitemia compared to controls ([4]; infected Balb/c mice, 1 mg/kg/day i.p., days 4 to 8 post-infection, 1 mg/kg/day): decrease the parasitemia; also recorded: lower blood parasitemia; mice surviving the acute phase of infection ([4]; lethal T. cruzi infection, controls 100% mortality by day 22, p = 0.02 Log-rank): 70%
C[C@H]1C(=O)O[C@H]2C[C@]3(C)O[C@H]3[C@@H]3O[C@@H]3C3=C[C@@H](OC3=O)[C@@H]21 [dihydromikanolide] | 57.1 µg/mL (≈ 195 µM) | 2.5 µg/mL (≈ 8.55 µM) | 8.5 µg/mL (≈ 29.1 µM) |  | 0.3 µg/mL (≈ 1.03 µM) | 13.0 µg/mL (≈ 44.5 µM) | 13 µg/mL (≈ 44.4 µM) | 
C=C1C(=O)OC2CC3(C)OC3C3OC3C3=CC(OC3=O)C12 (centres unmarked) [mikanolide] |  |  |  |  | 2.1 µg/mL (≈ 7.23 µM) |  |  | IC50 [2]: 0.7 µg/mL (≈ 2.41 µM); IC50 ([3]; RAW264.7, read-out: IC50 on T. cruzi amastigotes): 4.5 µg/mL (≈ 15.5 µM); CC50 at 24 h ([8]; THP1 cells): 22.3 µg/mL (≈ 76.8 µM); IC50 [1]: 5.1 µg/mL (≈ 17.6 µM)
C=C1C(=O)OC2CC3(C)OC3CC(OC(C)=O)C3=CC(OC3=O)C12 (centres unmarked) [scandenolide] | 252 µg/mL (≈ 754 µM) | 137 µg/mL (≈ 410 µM) | 60.6 µg/mL (≈ 181 µM) |  | 68.4 µg/mL (≈ 205 µM) |  | 864 µg/mL (≈ 2580 µM) | activity on Trypanosoma cruzi ([2]; in words, all T. cruzi stages (abstract)): not active
